Each block holds one compound with its values, some of them ahead of it. Where a SMILES comes first, the peptide text is derived from it. The star is where a group is joined. AMC = Cc1cc(=O)oc2cc(N*)ccc12; Boc = CC(C)(C)OC(=O)*
Experiments:
Format in all cases: biochemical
[1] = biological target: T1, plasmin-α2-macroglobulin complex (Homo sapiens, UniProt P00747); experiment: Plasmin generation experiment on paper, calibrator curve with plasmin-α2-macroglobulin complex; settings: substrate 300 µM with 8 µM AMC added, constant E 100 nM
T1 construct: thrombin and plasmin can be reacted with the plasma-derived protein α2-macroglobulin; made in house
Experimental: Stock solutions: SC-FII, prepared in house 1µM; Plasmin-α2macroglobulin complex, prepared in house 1 µM; rec Human recombinant tissue factor (TF) (Innovin; Siemens) 6µM. Phospholipids (PS:PC:PE, 2:6:2) prepared in house 1 mM, Human recombinant tissue plasminogen activator (tPA), (Alteplase Boehringer Ingelheim) 36 klU, Final concentrations used: SC-FII, 100 nM, Plasmin-α2macroglobulin 100 nM: tPA 300 IU. Substrate 300 µM,
To 40 µL of plasma was added 20 µL of the substrate solution (1,35 mM in BSA 60 buffer) so as to obtain a concentration of 450 µM.
To 40 µL of this mixture were added 20 µL of the activation mixture containing the indicated concentration of Ca^++, TF, PI, tPA in BSA 5 buffer. 5 µL of this of this solution was transferred to three 6 mm diameter paper rounds at the (flat) bottom of a 96-well plate. […] The plate was read in a Fluoroscan Ascent fluorometer at 37°C. Samples were measured every 10s at 390-460 nm for 50 minutes.
A plasmin generation experiment was carried out as described in the methods section with Boc-Glu-Lys-Lys-AMC (300 µM) as a substrate to which 8 µM AMC was added. […] We simultaneously recorded a fluorescence curve from plasmin-α2-macroglobulin complex, equivalent to 100 nM plasmin. From this curve, run to completion we found Fmax to be 1778 AU, whereas F0 as measured during the lag-times, was 49,2 AUs.

[2] = biological target: T2, thrombin (Homo sapiens, UniProt P00734); experiment: Standard thrombin generation experiment in plasma, ratio method (kinetic constants of substrate conversion); settings: substrate at 108 and 416 µM with 1 µM AMC added, 5 pM tissue factor, 37°C
T2 construct: from tissue; host or cells: plasma
Experimental: Plasma in solution: The TG experiments in the examples are variations on the standard experiment in which thrombin generation in plasma is measured in a 96-wells polystyrene microplate (Thermo Electron Corporation, Milford, MA, USA). All wells contained 80 µl plasma and 20 µl of a solution containing 0.5 - 5 pM tissue factor (TF) and 4 µM phospholipids (PL). To calibrator wells, 20 µl of calibrator was added instead so as to obtain the equivalent of 100 nM thrombin activity. Thrombin generation (TG) was initiated by the addition of 20 µl of substrate (standard: Z-Gly-Gly-Arg-AMC, 417 µM) and CaCl2 (16.6 mM).
• A. Addition of 80 µl plasma to each well • B. Addition of 20 µl TF/phospholipids mix or 20 µl calibrator to each well • C. Pre-heating of the plate for 10 min at 37°C • D. Addition of 20 µl FluCa kept at 37°C prior to the addition of the reaction mixture. • E. Immediate kinetic measurement of fluorescence in time (exc 390 nm / em 460 nm)
A standard thrombin generation experiment with 5 pM tissue factor was carried out, using Z-Gly-Gly-Arg-AMC as a substrate at the concentrations 108- and 416 bµM with 1µM of AMC added. Fom the fluorescence data the normalized ratio was calculated as Rt=(Fexp.t-F0)/(Fmax-F0) (dashed lines).

[3] = biological target: T3, staphylocoagulase-thrombin (Homo sapiens, UniProt P00734); experiment: Conversion of a substrate concentration series by staphylocoagulase-thrombin in 1:2 diluted normal plasma on filter paper
T3 construct: Antithrombin-resistant thrombin activity can also be obtained reacting prothrombin with the protein staphylocoagulase; made in house
Excerpt: Surface fluorescence in plasma and in whole blood has been essentially measured in the same way as published by Ninnivagi and Apitz for whole blood (Ninivaggi M, Apitz-Castro R, Dargaud Y, de Laat B, Hemker HC, Lindhout T. Whole blood thrombin generation monitored with a calibrated automated thrombogram-based assay. Clin.Chem. 2012,58:1252-1259) or in WO2006/117246. Paper discs of 5.5 mm diameter and 180 µm thickness (Whatman 589/1, Whatman GmbH, Dassel, Germany) were placed in flat bottom wells of a 96-wells polystyrene microplate (Thermo Electron Corporation, Milford, MA, USA).
• A. Preparation of paper matrices and placement into a flat-bottom 96 wells plate • B. Addition of the fluorogenic substrate solution to the plasma or to whole blood • C. Pre-heating of the reagents and whole blood for 2 min at 37°C • D. Mixing of the whole blood and the trigger mix or calibrator 1:1 • E. Pipetting 5 µL reaction mix onto the paper matrix • F. Pipetting 40 µL of mineral oil onto the paper matrix • G. Immediate measurement of fluorescence in time (exc 485 nm / em 538 nm)
In 1:2 diluted normal plasma adsorbed on filter paper a concentration series of mPEG-Gly-Pro-Arg-RhoAc (75, 150, 225, 300, 450 and 600 µM) was converted by 100 nM of staphylocoagulase-thrombin and the resulting fluorescence recorded as further described under materials and methods. […]

T1 sequence (P00747 581-810 limits assumed): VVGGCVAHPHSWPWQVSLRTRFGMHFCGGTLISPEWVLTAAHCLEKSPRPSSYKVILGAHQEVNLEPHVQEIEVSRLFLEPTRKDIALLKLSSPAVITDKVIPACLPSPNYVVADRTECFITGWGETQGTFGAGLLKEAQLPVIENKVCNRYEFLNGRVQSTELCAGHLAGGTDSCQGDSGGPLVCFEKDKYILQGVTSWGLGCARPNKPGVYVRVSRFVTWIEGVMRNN
T1 sequence (P00747 97-580 limits assumed): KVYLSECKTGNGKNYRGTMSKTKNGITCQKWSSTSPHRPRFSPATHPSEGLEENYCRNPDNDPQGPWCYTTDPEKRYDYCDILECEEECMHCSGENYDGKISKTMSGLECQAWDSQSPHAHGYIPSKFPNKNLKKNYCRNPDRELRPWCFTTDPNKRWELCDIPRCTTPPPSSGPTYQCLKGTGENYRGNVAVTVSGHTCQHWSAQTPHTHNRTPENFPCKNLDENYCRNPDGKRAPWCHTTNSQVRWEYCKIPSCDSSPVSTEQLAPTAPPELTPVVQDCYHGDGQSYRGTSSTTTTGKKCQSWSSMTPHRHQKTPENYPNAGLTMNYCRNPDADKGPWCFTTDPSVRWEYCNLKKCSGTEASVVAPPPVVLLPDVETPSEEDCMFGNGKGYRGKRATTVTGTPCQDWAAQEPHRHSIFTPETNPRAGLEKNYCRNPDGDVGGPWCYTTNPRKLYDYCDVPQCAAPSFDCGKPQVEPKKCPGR
T1 sequence (P01023 24-1474 partner): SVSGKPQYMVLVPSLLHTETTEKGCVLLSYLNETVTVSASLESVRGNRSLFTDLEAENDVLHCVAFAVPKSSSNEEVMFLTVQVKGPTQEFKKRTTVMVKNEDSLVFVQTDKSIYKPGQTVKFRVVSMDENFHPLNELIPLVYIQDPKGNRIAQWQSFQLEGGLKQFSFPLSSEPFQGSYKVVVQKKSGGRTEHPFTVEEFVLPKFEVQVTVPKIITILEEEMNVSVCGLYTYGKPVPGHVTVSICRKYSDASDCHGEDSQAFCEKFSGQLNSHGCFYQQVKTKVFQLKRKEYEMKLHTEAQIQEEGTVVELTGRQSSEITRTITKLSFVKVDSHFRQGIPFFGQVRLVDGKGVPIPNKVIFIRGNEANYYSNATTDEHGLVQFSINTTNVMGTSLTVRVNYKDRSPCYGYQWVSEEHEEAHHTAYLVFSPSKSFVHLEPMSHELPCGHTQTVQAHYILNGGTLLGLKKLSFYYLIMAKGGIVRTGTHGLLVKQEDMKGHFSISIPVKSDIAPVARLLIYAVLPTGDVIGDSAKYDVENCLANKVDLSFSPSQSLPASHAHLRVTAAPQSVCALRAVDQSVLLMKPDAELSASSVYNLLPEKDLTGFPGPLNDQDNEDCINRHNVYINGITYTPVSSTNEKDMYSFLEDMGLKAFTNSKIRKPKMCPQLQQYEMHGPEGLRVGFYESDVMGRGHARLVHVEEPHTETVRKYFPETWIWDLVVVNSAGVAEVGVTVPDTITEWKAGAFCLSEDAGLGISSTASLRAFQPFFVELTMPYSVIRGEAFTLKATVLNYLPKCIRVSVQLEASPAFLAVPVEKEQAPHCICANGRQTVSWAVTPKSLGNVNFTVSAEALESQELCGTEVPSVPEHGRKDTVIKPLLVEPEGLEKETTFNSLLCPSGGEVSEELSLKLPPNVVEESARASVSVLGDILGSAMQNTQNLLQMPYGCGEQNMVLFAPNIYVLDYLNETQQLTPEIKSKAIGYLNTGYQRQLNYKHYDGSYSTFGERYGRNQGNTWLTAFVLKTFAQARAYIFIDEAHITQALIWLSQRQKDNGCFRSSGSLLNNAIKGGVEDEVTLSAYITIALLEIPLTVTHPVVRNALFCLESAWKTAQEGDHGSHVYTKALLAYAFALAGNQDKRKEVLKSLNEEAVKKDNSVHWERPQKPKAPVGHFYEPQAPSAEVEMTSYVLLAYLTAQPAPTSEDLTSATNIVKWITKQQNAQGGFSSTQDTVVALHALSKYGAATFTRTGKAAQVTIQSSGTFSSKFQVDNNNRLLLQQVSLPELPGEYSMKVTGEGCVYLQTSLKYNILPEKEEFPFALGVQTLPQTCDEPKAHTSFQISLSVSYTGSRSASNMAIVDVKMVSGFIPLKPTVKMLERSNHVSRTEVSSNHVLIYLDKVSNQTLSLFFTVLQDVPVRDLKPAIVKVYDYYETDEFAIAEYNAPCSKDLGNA

Km/kcat [1]: 8660 nM·min
Compound: Cc1cc(=O)oc2cc(NC(=O)[C@H](CCCCN)NC(=O)[C@H](CCCCN)NC(=O)[C@H](CCC(=O)O)NC(=O)OC(C)(C)C)ccc12 [Boc-Glu-Lys-Lys-AMC, ButylOxyCarbonyl-Glu-Lys-Lys-AMC] (Boc-Glu-Lys-Lys-{AMC})

Km [2]: 900 µM
kcat [2]: 1.9 s⁻¹
Compound: Cc1cc(=O)oc2cc(NC(=O)C(CCCNC(=N)N)NC(=O)CNC(=O)CNC(=O)OCc3ccccc3)ccc12 (stereo not drawn) [Z-Gly-Gly-Arg-AMC]

Compound: mPEG-Gly-Pro-Arg-RhoAc
Km/kcat ([3]; enzyme concentration 100 nM, any substrate concentration ≤ 600 µM): 11,36 µM.min
Km ([3]; substrate 75-600 µM, 100 nM staphylocoagulase-thrombin, inferred from reaction velocity proportional to substrate concentration): > 600 µM
